According to patent US10053458B2, “Pyrimidine-2,4-diamine derivative and anticancer pharmaceutical composition comprising same as effective ingredient” (KOREA RESEARCH INSTITUTE OF CHEMICAL TECHNOLOGY, priority 2014, dated 2018):
Like-named read-outs stand apart in the source and are kept apart here.

What was measured:
[1] = test system: BaF3 EML4-ALK WT cells; settings: mouse, 3 days
[2] = test system: H2228; experiment: Cancer cell proliferation inhibition (SRB/MTS), H2228; settings: read-out: H2228 GI50
Procedure: (§1) Cancer cell lines used in the experiments were all human-derived cancer cell lines, specifically H2228 and H3122, which are non-small cell lung cancer cell lines.
(§2) The cancer cell proliferation inhibition was measured using the MTS assay as follows. […] Each culture medium was placed in an incubator for 4 hours, taken out and left at room temperature for 10 minutes.

[3] = test system: H3122; experiment: Cancer cell proliferation inhibition (SRB/MTS), H3122; settings: read-out: H3122 GI50
Procedure: as §1, §2

[4] = test system: BaF3 EML4-ALK WT cells; experiment: Cytotoxicity on BaF3 cell transfected with EML4-ALK WT (WST-1); settings: read-out: BaF3 EML4-ALK WT, IC50 of the cytotoxicity
[5] = biological target: ALK wt. (Homo sapiens (Human), UniProt Q9UM73); experiment: ALK enzyme inhibitory activity (HTRF kinase assay), ALK wt.; settings: read-out: ALK wt. IC50, enzyme level
[6] = non-small cell lung cancer cell line, 72 hours

Sequence of ALK wt. (Q9UM73 19-1620): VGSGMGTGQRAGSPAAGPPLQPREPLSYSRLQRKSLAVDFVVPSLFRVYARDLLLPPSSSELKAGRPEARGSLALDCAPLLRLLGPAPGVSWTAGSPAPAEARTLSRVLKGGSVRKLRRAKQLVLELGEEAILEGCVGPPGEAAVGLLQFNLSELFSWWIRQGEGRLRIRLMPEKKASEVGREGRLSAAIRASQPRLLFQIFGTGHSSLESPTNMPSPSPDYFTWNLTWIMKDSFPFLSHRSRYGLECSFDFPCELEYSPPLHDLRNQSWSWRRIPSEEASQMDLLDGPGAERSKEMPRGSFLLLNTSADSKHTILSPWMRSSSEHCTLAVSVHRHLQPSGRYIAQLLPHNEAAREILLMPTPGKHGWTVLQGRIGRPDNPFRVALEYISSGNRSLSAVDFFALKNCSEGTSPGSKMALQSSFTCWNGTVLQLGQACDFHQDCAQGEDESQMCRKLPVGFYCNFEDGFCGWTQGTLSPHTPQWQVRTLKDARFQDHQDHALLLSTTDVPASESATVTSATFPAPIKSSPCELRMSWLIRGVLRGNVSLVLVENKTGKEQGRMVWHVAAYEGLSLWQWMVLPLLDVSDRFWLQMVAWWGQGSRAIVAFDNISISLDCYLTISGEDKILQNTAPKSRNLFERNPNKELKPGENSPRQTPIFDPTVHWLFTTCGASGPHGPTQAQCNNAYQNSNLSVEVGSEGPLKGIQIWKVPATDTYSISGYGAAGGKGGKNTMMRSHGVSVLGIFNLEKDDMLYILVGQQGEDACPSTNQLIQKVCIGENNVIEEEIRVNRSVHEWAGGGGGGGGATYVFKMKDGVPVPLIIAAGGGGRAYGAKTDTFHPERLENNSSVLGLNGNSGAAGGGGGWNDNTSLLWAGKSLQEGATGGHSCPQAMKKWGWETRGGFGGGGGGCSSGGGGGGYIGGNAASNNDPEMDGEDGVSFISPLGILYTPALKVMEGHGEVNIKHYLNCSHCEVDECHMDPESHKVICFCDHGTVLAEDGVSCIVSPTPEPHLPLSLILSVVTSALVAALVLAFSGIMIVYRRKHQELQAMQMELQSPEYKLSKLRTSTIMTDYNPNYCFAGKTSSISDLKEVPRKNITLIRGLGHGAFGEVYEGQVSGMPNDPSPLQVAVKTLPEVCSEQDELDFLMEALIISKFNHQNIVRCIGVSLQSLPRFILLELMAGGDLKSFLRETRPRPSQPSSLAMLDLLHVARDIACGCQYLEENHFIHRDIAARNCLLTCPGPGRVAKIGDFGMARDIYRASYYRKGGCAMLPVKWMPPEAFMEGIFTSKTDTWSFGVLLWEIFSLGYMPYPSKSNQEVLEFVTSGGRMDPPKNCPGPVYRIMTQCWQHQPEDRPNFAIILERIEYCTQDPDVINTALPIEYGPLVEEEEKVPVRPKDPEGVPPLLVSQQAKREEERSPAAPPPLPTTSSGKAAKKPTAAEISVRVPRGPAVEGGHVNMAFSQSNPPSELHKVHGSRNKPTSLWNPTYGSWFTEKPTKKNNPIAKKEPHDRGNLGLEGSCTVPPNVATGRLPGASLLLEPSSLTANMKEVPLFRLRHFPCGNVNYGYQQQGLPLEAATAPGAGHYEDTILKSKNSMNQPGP

Row | IC50 [1] [nM] | GI50 ([2]; Homo sapiens, NCI-H2228, 72 h) [nM] | GI50 ([3]; Homo sapiens, NCI-H3122, 72 h) [nM] | Compound | GI50 [2, 6] [nM] | GI50 [3, 6] [nM] | IC50 ([4]; 3 days, WST-1) [nM] | IC50 [5] [nM] | IC50 ([4]; Ba/F3 EML4-ALK, 72 h) [nM]
1 | 19 | 25 | 23 | Cc1cc(Nc2ncc(Cl)c(Nc3ccccc3S(=O)(=O)C(C)C)n2)c(OC(C)C)cc1C1CCNCC1 [Comparative Example 2, LDK-378, reference compound] |  |  |  |  | 
2 |  |  |  | COc1cc2c(cc1Nc1ncc(Cl)c(Nc3ccccc3S(=O)(=O)C(C)C)n1)CN(CCO)CC2(C)C [Example 93] | < 50 | < 50 | < 50 | < 10 | 
3 |  | < 50 | < 50 | COc1cc2c(cc1Nc1ncc(Cl)c(Nc3ccccc3S(=O)(=O)C(C)C)n1)CNC2(C)C [Example 106, 5-chloro-N4-(2-(isopropylsulfonyl)phenyl)-N2-(6-methoxy-1,1-dimethylisoindolin-5-yl)pyrimidine-2,4-diamine] |  |  |  |  | < 50
